The subject of one experiment is P388. Nature of the experiment: In vivo antitumor activity against mouse P388 cells at 2.5 to 10 mg/kg relative to control. Conditions: dose mg/kg 2.5-10. The format is functional.
A further experiment relates to KB. Nature of the experiment: Cytotoxicity against human KB cells. Particulars: read-out: ED50 (the source's name). The format is functional.

Molecules are shown by their SMILES. In brackets after ≈: the same amount, converted by molar mass.

With `C/C=C1\CN2CCc3c([nH]c4ccccc34)[C@@H]2C[C@@H]1[C@@H](CO)C(=O)OC`, in the experiment on P388, the T/C result was “>=150%”. Moreover, in the experiment with KB, the EC50 worked out at 1.2 µg/mL (≈ 3.39 µM).

The record behind these values is ChEMBL document CHEMBL1145658, “Catharanthus alkaloids XXXVII. 16-Epi-Z-isositsirikine, a monomeric indole alkaloid with antineoplastic activity from Catharanthus roseus and Rhazya stricta” (1983).
